The values below come from paper PMC12590632, “Identification and characterization of a nonpeptidic cyclophilin ligand with antiviral activity against feline and porcine α-coronaviruses” (Veterinary Research, 2025).

One series deals with CRFK cells. The experiment in a line: Cytotoxicity assay (CellTiter-Glo). The format is cell-based, feline. Conditions: 24 h, up to 25 µM. As to the method:
The cells were plated in a 96-well plate at a density of 2 × 10^4 cells/well and incubated for 24 h. The culture medium was replaced with serial dilutions of culture medium containing three replicates of different concentrations (ranging from 0.9 μM to 25 μM) of F83233, F832 and F833 molecules, DMSO or media alone as controls. The plates were incubated for 24 h at 37 °C. Cytotoxicity was evaluated with the CellTiter-Glo Cell Viability Assay Kit (Promega, Madison, USA).
Background: Cellular ATP, detected with luciferase, serves as a proxy for viable cell number.

Another series concerns the target T1, Human cyclophilin A (Homo sapiens, UniProt P62937).
T1 construct: made in house
The experiment in a line: PPIase enzyme assay (chymotrypsin-coupled). Format: biochemical. The note with it: 20 °C, mean ± SD of two or more experiments. As to the method:
Human cyclophilin A was purified, and its PPIase activity in the absence or presence of SMCypI was measured as previously described. Briefly, cyclophilin A PPIase activity was measured at 20 °C using the standard chymotrypsin-coupled assay. The assay buffer (25 mM HEPES and 100 mM NaCl, pH 7.8) and purified cyclophilin A were precooled to 4 °C. Then, 5 µL of 50 mg/mL chymotrypsin in 1 mM HCl was added (final reaction volume of 500 µL). The reaction was initiated by adding the peptide substrate Suc-Ala-Ala-Cis-Pro-Phe-pNA to a LiCl/TFE solution with rapid inversion. The absorbance of p-nitroaniline was monitored at 390 nm until the reaction was complete, i.e., when the absorbance reached a plateau (1 min). The final concentration of LiCl in the assay was 20 mM, and TFE was present at a concentration of 4% (v/v). The absorbance was measured every second using a spectrophotometer (BioMate3, Thermo Fischer Scientific). For the inhibition assessment, 5 µL of the tested compound in dimethyl sulfoxide (DMSO) was added to the cyclophilin A solution in the assay buffer. CsA (Sigma‒Aldrich, Saint-Louis, USA) was used as a positive control for PPIase inhibition in all measurements. IC50 values were calculated from dose‒response curves and reported as the mean ± standard deviation of two or more experiments.

Series [1] relates to TGEV (Purdue strain) in PK15 cells. The experiment in a line: TGEV infection in PK15 cells, immunofluorescence, infected area. The format is cell-based, transmissible gastroenteritis virus. The note with it: for Effect on TGEV infection: 12.5 µM. Here is the method: (§1) CRFK, PK15 and Vero cells were plated in a 96-well plate at a density of 2 × 10^4 cells/well and incubated for 18 h at 37 °C. The cells were infected with FIPV (MOI of 1), TGEV (MOI of 0.5) or PEDV (MOI of 0.5). Viral inoculation was performed in the presence of F83233, F832 and F833 at concentrations ranging from 0.1 μM to 25 μM for FIPV assays and from 0.78 µM to 12.5 µM for TGEV and PEDV. Two hours after viral inoculation, fresh medium supplemented with the same concentrations of inhibitors was added. The antiviral effect was measured at the peak of viral replication, i.e., after 24 h for FIPV and PEDV infection and after 48 h for TGEV infection. The experiments were repeated twice, and each condition was tested in duplicate or triplicate in independent wells.
(§2) Fixed PK15 and Vero cells were processed similarly. TGEV infection was detected with a homemade anti-spike antibody (called 51.13 [46, 47], dilution 1/10 000) from a mouse and with an anti-mouse AlexaFluor-555-conjugated secondary antibody. PEDV infection was detected with polyclonal antibodies from pigs (a gift from Drs. Y. Blanchard and M. Contrant, Anses, Ploufragan, dilution 1/300) and with an anti-pig AlexaFluor-488-conjugated secondary antibody (SouthernBiotech, Birmingham, USA). […] (J2 from Cell Signaling Technology, Danvers, USA, dilution 1/1000), followed by incubation with an anti-mouse AlexaFluor-555-conjugated secondary antibody. The cells were counterstained with DAPI (Sigma‒Aldrich, final concentration of 1 µg/mL). Secondary antibodies (with the exception of the anti-pig at a 1/400 dilution) were used at a 1/800 dilution and were obtained from Molecular Probes (Thermo Fischer Scientific).
(§3) For each concentration of F832, F833 or F83233, 3 to 5 pictures were randomly taken with an epifluorescence microscope (Zeiss, Oberkochen, Germany) with a 10X objective. The area of staining was measured with ImageJ. The number of nuclei/syncytia (defined as PEDV-positive cells with > 4 nuclei) in PEDV-infected cells was manually counted using ImageJ. Blind analysis was performed to avoid bias.

Series [2] deals with FIPV (strain 79-1146) in CRFK cells. The series can be described thus: FIPV viral titre in cell supernatants, dose response in CRFK cells. Format: cell-based, feline infectious peritonitis virus. Conditions: for Decrease of FIPV virus titre: 25 µM. Here is the method: (§4) CRFK cells were plated in a 96-well plate at a density of 2 × 10^4 cells/well and incubated for 24 h. Serial tenfold dilutions (10^–1 to 10^–6) of viral supernatants, obtained with or without cyclophilin inhibitors, were added to CRFK cells in eight replicate wells per dilution. The viral inoculum was removed 2 h after infection, and the cells were incubated for 24 h at 37 °C. The cells were fixed via sequential incubation in absolute ethanol followed by 70% ethanol (10 min each at room temperature). FIPV antigens were then detected by immunofluorescence using ascitic fluid from an infected cat (dilution 1/500), followed by incubation with an anti-cat AlexaFluor-488-conjugated secondary antibody (Jackson ImmunoResearch, West Grove, USA). Wells containing fluorescent cells were counted. The 50% infectious dose (ID50) was calculated using the Spearman–Karber method. The results are presented as the means of ≥ 2 experiments performed in triplicate.
as §1

Series [3] relates to PEDV (CV777 strain) in Vero cells. The series can be described thus: PEDV infection in Vero cells, immunofluorescence, infected area. The format is cell-based, porcine epidemic diarrhoea virus. Conditions: for Antiviral potency against PEDV: MOI 0.5, 24 h, 0.78-12.5 µM. Here is the method: as §1, §2, §3
In the next series the test system is FIPV in CRFK cells. The experiment in a line: Time-of-drug addition assay. The format is cell-based, feline infectious peritonitis virus. Here is the method: as §4
CRFK cells were plated in a 96-well plate at a density of 2 × 10^4 cells per well and incubated for 24 h. The cells were infected with FIPV at an MOI of 1 in the presence of 5 µM F83233 (for 0 h post-infection (pi)) or in the presence of DMSO (for the other time points). After viral inoculation, the culture medium was removed, fresh medium containing 5 μM F83233 was added at 1, 3, 6, 9 or 18 h post-infection, and infection was stopped at 24 h post-inoculation. The cell supernatants were stored at −80 °C prior to end-point dilution to measure the effect of F83233 on FIPV infectivity under different conditions. The experiment was repeated three times, and each condition was tested in triplicate.

For series [4], the system named is PEDV (CV777 strain) in Vero cells. The series can be described thus: PEDV-induced syncytium formation and dsRNA staining in Vero cells. The note with it: 12.5 µM. The format is cell-based, porcine epidemic diarrhoea virus.
Text: as §2, §3

Series [5] has as its system FIPV (strain 79-1146) in CRFK cells. The series can be described thus: SMCypI screening for FIPV infection, viral titre by end-point dilution. Format: cell-based, feline infectious peritonitis virus. The note with it: 50 µM SMCypI, MOI 1, 24 h. As to the method: CRFK cells were plated in a 96-well plate at a density of 2 × 10^4 cells/well and incubated for 24 h. The cells were infected for 1 h with FIPV at a multiplicity of infection (MOI) of 1 in the presence of 50 µM or 10 µM SMCypI or CsA, respectively. The inoculum was removed after 1 h, and inhibitors (50 μM SMCypI or 10 μM CsA) were added for 24 supplemental hours. The supernatants were collected and stored at −80 °C prior to the end-point dilution assays.
as §4, with “The results are presented as the means of ≥ 2 experiments performed in triplicate.” left out

Where [6] appears, read: 5 µM F83233, FIPV MOI 1, CRFK cells.

T1 sequence (P62937 whole entry): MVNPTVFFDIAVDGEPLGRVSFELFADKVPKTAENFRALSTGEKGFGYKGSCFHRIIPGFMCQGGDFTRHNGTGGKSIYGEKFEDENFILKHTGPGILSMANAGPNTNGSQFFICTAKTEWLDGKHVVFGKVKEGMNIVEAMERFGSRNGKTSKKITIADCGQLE

Usually IC50 stands for the point on the concentration scale where inhibition reaches its midpoint. Low values mean higher potency, high ones lower potency. `O=C(NCc1ccc2c(c1)CCCN2)NC(C(=O)N1CCCC1c1cccc2ccsc12)c1ccccc1` (stereo not shown) [Compound F832]: the Cytotoxicity result with CRFK cells is on record as “low cytotoxicity”. At Human cyclophilin A, the half-maximal inhibitory concentration (IC50) came to 400 ± 90 nM. In addition, the “Effect on TGEV infection” value in series [1] (MOI 0.5, 48 h) is “no significant effect”. In addition, the “Decrease of FIPV virus titre” value in series [2] (24 h) is reported as “≈ 0.5 Log10”. Further, the “Antiviral potency against PEDV” value in series [3] was “modest antiviral potency”.

Turning to `Nc1ccc(CNC(=O)NC(C(=O)N2CCCC2c2cccc3ccsc23)C2CCCCC2)cc1` (stereo not shown) [Compound F833], the Cytotoxicity result with CRFK cells was “low cytotoxicity”. Further, the IC50 against Human cyclophilin A was determined as 600 ± 100 nM. The “Effect on TGEV infection” value in series [1] (MOI 0.5, 48 h) was “no significant effect”. The “Decrease of FIPV virus titre” value in series [2] (24 h) is “≈ 0.5 Log10”. Also, in series [3], the “Antiviral potency against PEDV” value is recorded as “modest antiviral potency”.

In the case of `O=C(NCc1ccc2c(c1)CCCN2)NC(C(=O)N1CCCC1c1cccc2ccsc12)C1CCCCC1` (stereo not shown) [Compound F83233], the Cytotoxicity entry with CRFK cells is on record as “low cytotoxicity”. In addition, at Human cyclophilin A, the IC50 amounted to 700 ± 500 nM. In addition, the “Effect on TGEV-infected cells” value in series [1] (6.25 µM and 12.5 µM, 48 h) was “almost complete disappearance of infected cells”. The “Concentration at which active against TGEV” value in series [1] (MOI 0.5, 48 h) is reported as 1.6 µM. Moreover, in the series on FIPV in CRFK cells (setting [6]), the “Decrease of antiviral efficiency between addition at 1 and 3 h post-infection” value is listed as “more than 1 Log10”; the “Time of addition giving the maximal antiviral effect” value was “simultaneously with the virus or 1 h later”. Further, the “Inhibition of FIPV titre compared with DMSO control” value in the series with FIPV in CRFK cells (5 µM F83233 added 18 h post-infection) is given as “≈ 1 Log10”. Besides, in series [4], the “Double-strand RNA staining (viral genome replication) in syncytia” value is recorded as “markedly impacted”; the “Size of PEDV-induced syncytia and number of nuclei per syncytium” value is recorded as “drastically decreased”. Further, in series [2] (5 µM, 24 h), the “Reduction in FIPV viral titre” value is on record as “approximately 2 Log10”. The FIPV viral reduction result in series [2] (10 µM) is “approximately 3 Log10”. Besides, the “Maximal inhibitory effect, decrease of FIPV titre” value in series [2] (12.5 µM, 24 h) was 3–4 Log10. Further, in series [2] (24 h), the “Decrease of FIPV virus titre” value is reported as “≈ 3 Log10”. Further, in series [3] (3.125 µM, 24 h), the “Effect on PEDV infection” value is on record as “important reduction in infection”. Moreover, the “Inhibition of FIPV titre” value in series [5] was “more than 4 Log10”.
